Measurements as given in patent US20230263801A1, “COMBINATION THERAPY OF PARP INHIBITORS” (IMPACT THERAPEUTICS (SHANGHAI), INC, priority 2020, published 2023).
Read-outs that look alike come from different tables or passages of the source. Marks after values point to notes of the source that are not given here.

How the values were obtained:
[1] = test system: human small cell lung cancer NCI-H209 cells; test: CCK-8 growth inhibition of NCI-H209 cells, IMP4297 alone and combined with TMZ; type: cell-based; settings: NCI-H209, 120 h
Experimental: The CCK-8 detection method was used to determine the inhibitory effect of IMP4297 combined with TMZ on the growth of human small cell lung cancer NCI-H209 cells. The resuscitated human small cell lung cancer NCI-H209 cells were inoculated into a culture dish, experimental medium (RPMI1640+20% FBS) was added, and the culture dish was incubated at 37° C. and 5% CO2 in an incubator. Cells with good growth and suitable confluence were selected for the experiment, and centrifiged at 800 rpm for 5 min. The supernatant was discarded. The cells were resuspended with fresh medium and inoculated into a 96-well cell culture plate at a suitable cell density. 190 μL of cell suspension liquid was inoculated into each well. The test compound (including IMP4297, TMZ and reference compound AZD2281) was serially diluted with DMSO at a ratio of 1:3 and 1:10 to 10 concentrations (the last concentration is the DMSO negative control). 5 μL of each concentration was added to 120 μL of media (25 times dilution). The mixture was mixed well by shaking. Separate medication: 5 μL of the diluted medium containing the corresponding concentration of the compound and 5 μL of the medium were added respectively, combined medication. 5 μL of the diluted medium containing the corresponding concentration of the compound and 5 μL of the medium containing the final concentration of 50 μM of TMZ were added respectively. The final concentration of DMSO is […]. The culture plate was then incubated at 37° C. and 5% CO2 in an incubator for 5 days. 20 μL of CCK-8 detection reagent was added to each well, and the culture was continued for 2 hours. The culture plate was then shaked for 10 minutes and placed on a multi-function reader to measure the absorbance value (OD value) using the wavelength of 450/65011m. Graph Pad Prism 6.0 was used to analyze the data. The inhibitory effects of compounds on cell proliferation were plotted based on cell viability and the logarithm of compound concentration. Cell viability % (nM) ODcompound/ODDMSO×100. […] The combination index was calculated using CalcuSyn software. […]

[2] = test system: NCI-H209 human small cell lung cancer xenograft tumor; test: In vivo efficacy of IMP4297 combined with TMZ in NCI-H209 xenograft tumor model; set-up: species or system nude mice; settings: for body weight reduction during the experiment: single agent-treated groups (TMZ 3 mg/kg; IMP4297 10 mg/kg)
Experimental: The anti-tumor efficacy of the compound IMP4297 combined with TMZ was evaluated in the NCI-H209 human small cell lung cancer xenograft tumor model in nude mice. For this purpose, human small cell lung cancer NCI-H209 cells were inoculated into the subcutaneous breast area of the right axilla of nude mice. The cell inoculation amount was 2×10^6 logarithmic growth phase cells. The inoculated mice were used after transplanted tumors were formed. Vigorously growing tumor tissues were cut into small pieces of 1×1×1 mm^3, and inoculated under the skin of the breast area of the right axilla of each BALB/c nude mouse. When the average tumor volume reached about 124.08 (57.16-280.79) mm^3, nude mice were randomly grouped according to the tumor volume and were administered the drugs.
After grouping and drug treatment start, the weight of nude mice was weighed twice a week and recorded. Weight change (%)=(Wt−W1)/W1×100%, wherein W1 is the body weight measured at the time of grouping administration (i.e D1), and Wt is the weight of the recording day. Weight change (%) is a measure of treatment-related toxicity (when average weight loss exceeded 15%, treatment was stopped or the schedule was adjusted until recovery; when average weight loss exceeded 20%, the experiment was terminated). The tumor diameter (length and width) was measured twice a week with a vernier caliper. The tumor volume (length×width^2/2) and the relative tumor volume RTV=Vt/V1 were calculated, wherein V1 is the tumor volume at the time of grouping administration (i.e. D1), and Vt is the tumor volume at each measurement. […] TGM(%)=[(CVt−CV1)−(TVt−TV1)]/(CVt−CV1)×100%, wherein […] is the tumor volume on the recording day of the vehicle control group, […] is the tumor volume of the vehicle control group at the time of grouping administration, TVt is the tumor volume of the drug administration group on the recording day, and TV1 is the tumor volume of the drug administration group at the time of grouping administration.
After the experiment, 3 nude mice were randomly selected from each group, and 300 μL of whole blood was collected from the orbit and placed in a BD K2EDTA anticoagulant tube (REF367841) for routine blood testing.
GraphPad Prism 6.0 software two-way ANOVA was used to compare the mean tumor volume and relative tumor volume between groups. Compared with the control group (vehicle), *p<0.05 (statistical difference), **p<0.01 (significant statistical difference), ***p<0.001 (very significant statistical difference); compared with the TMZ group, ^#p<0.05 (statistical difference), ^##p<0.01 (significant statistical difference), ^###p<0.001 (very significant statistical difference); compared with the IMP4297 group, ^+p<0.05 (statistical difference), ^++p<0.01 (significant statistical difference), ^+++p<0.001 (very significant statistical difference).

[3] = test system: animal model with BRCA mutation; test: IMP4297 single agent efficacy in animal model with BRCA mutation; type: in vivo; settings: 2.5-20 mg/kg QD in mice
cancer [4] = test: Clinical studies of IMP4297 as a single agent in patients with cancer (ESMO 2020 abstracts); type: in vivo; settings: 20-120 mg QD in human
[5] = test system: animal model with BRCA mutation; settings: cited from earlier work
cancer [6] = settings: QD continuously, cited from earlier work
PARP1 [7] = biological target: T1, PARP1 (Homo sapiens, UniProt P09874); test: PARP1 trapping in HCT116 cells treated with TMZ (Western blot of chromatin-bound proteins, ImageJ); type: cell-based; set-up: endogenous in cells; host or cells: HCT116; settings: for grey density value of PARP1 band: 4 hours, HCT116
Experimental: Colorectal carcinoma HCT116 cells were used in the experiment Cells in exponential growth phase were trypsinized and seeded to 10 cm cell culture plate at a density about 10-20% confluency After two days when cell density reached 70-80%, the cell culture was replaced with fresh medium containing vehicle, 0.1 μM or 10 μM of IMP4297 either in the presence or absence of 1 mM TMZ. Cells were treated for 4 hours. Chromatin-bound proteins were extracted according to the “Subcellular Protein Fractionation Kit for Cultured Cells (Thermo, LOT78840)” protocol.
PARP trapping was detected using SDS-PAGE electrophoresis followed by Western blot Extracted chromatin-bound protein samples were mixed with 5×SDS-PAGE solution and heated for 5 min at 100° C. Equal amount (25-30 μg) of protein was loaded to each lane on a pre-made SDS-PAGE gel (Genscript SurePAGE™, Bis-Tris, 4-20%, 15 wells M00657). Anti-PARP1 antibody (ABCAM ab227244) used in the study was 1:1000 diluted, anti-Histone 113 antibody (ABCAM ab1791) was 1.5000 diluted and anti-rabbit IgG HRP-linked Antibody (CST 7074s) was 1:2000 diluted. The bands were detected by standard Western blot protocol.

PARP1 [8] = biological target: T1, PARP1; test: PARP1 trapping in DU145 cells treated with MMS (Western blot of nuclear chromosomal fraction, ImageJ); type: cell-based; set-up: the nuclear chromosomal component was extracted according to subcellular protein fractionation kit instructions; endogenous in cells; host or cells: DU145; settings: for grey density value of PARP1 band: MMS 0.01%, 4 hours
Experimental: Human prostate cancer DU145 cells were used in the experiment. On the first day, cells were seeded to 10 cm cell culture dishes and kept in an incubator overnight. […] The plates were swirled, and the cells were kept in an incubator at 37° C., 5% CO2 for 4 hours. Totally 12 samples were prepared and tested. After incubation, the nuclear chromosomal component was extracted according to subcellular protein fractionation kit instructions. Protein concentration was measured by Pierce® BCA Protein Assay Kit (Thermo) and protein was ready for western blot assay. 10 μg protein was loaded into each well of bolt gels, then wet transfer was performed, and the membrane was incubated overnight at 4° C. with anti-PARP antibody (Santa Cruz Biotechnology) with 1.500 dilution and 1:25000 dilution of anti-H3 antibody, respectively. The membrane was washed the next day with TBST 3 times, 5 minutes/time, then incubated with Goat anti-rabbit IgG-HRP (Santa Cruz Biotechnology) in a 1:4000 dilution for 1 hour at room temperature. ECL Prime Western Blotting Det kit (GE) was used to develop the target on the membrane.

BRCA mutant animal model = settings: cited from earlier work
recurrent glioblastoma = settings: patients with recurrent glioblastoma; cited from earlier work
[9] = separate medication, 5 days, CCK-8, read-out: IC50, proliferation of NCI-H209 cells

T1 sequence (P09874 whole entry): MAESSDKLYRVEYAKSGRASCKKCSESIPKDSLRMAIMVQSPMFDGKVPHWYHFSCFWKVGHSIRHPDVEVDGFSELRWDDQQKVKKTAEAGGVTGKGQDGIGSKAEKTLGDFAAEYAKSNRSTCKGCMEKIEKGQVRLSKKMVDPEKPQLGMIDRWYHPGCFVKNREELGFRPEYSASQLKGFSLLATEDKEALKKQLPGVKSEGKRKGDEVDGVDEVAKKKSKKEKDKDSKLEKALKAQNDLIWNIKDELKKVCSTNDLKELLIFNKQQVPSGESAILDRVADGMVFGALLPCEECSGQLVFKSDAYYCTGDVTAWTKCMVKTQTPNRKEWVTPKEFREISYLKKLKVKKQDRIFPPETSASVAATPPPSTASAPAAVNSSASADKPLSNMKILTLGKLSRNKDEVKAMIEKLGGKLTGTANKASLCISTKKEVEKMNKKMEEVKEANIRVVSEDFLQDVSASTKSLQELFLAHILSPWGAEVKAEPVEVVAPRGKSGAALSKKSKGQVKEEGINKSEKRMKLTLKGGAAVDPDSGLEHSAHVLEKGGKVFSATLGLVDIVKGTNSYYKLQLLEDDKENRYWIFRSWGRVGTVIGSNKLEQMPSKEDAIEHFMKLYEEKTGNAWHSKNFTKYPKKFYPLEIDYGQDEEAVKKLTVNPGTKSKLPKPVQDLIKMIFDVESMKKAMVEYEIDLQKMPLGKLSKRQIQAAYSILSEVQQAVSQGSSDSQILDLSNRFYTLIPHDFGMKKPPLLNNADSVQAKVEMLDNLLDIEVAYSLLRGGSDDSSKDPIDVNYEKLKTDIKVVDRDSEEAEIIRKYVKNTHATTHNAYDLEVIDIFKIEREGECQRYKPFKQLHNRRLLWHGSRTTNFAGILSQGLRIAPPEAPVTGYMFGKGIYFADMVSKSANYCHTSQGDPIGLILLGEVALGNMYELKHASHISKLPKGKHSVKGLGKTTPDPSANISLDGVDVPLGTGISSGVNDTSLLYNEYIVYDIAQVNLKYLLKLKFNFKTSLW

Structure (SMILES): O=C(c1cc(Cn2c(=O)[nH]c(=O)c3c(F)cccc32)ccc1F)N1CCN(c2ncccn2)CC1 [IMP4297, 5-fluoro-1-(4-fluoro-3-(4-(pyrimidin-2-yl)piperazine-1-carbonyl)benzyl)quinazoline-2,4(1H,3H)-dione]
- IC50 [1, 9]: 113 nM
- T/C (%) ([2]; IMP4297 10 mpk p.o. QD x 21 D): 79.12** %
- TGI (%) ([2]; IMP4297 10 mpk p.o. QD x 21 D): 18.80** %
- body weight reduction during the experiment [2]: no body weight reduction
- inhibitory effect on tumor growth versus vehicle ([2]; single agent: TMZ 3 mg/kg, IMP4297 10 mg/kg): no significant inhibitory effect on tumor growth
- therapeutic window [3]: 8 fold
- therapeutic window (cancer [4]): 6 fold
- effective dose as a single agent [5]: 2.5-20 mg/kg per day
- clinically effective dose as a single agent (cancer [6]; cancer patients): 20 to 120 mg
- RP2D as a single agent (cancer [6]): 100 mg
- PARP1 trapping in nuclear chromosome (PARP1 [7]; 0.1-10 μM in HCT116 cells in the presence of TMZ): good PARP1 trapping
- grey density value of PARP1 band (PARP1 [7]; IMP4297 0.1 μmol/L in the presence of TMZ 1 mM): 398
- grey density value of PARP1 band (PARP1 [7]; IMP4297 0.1 μmol/L, vehicle (no TMZ)): 141
- grey density value of PARP1 band (PARP1 [7]; IMP4297 10 μmol/L in the presence of TMZ 1 mM): 446
- grey density value of PARP1 band (PARP1 [7]; IMP4297 10 μmol/L, vehicle (no TMZ)): 182
- grey density value of PARP1 band (PARP1 [8]; 0.01 μmol/L drug, DU145): 3667.63
- grey density value of PARP1 band (PARP1 [8]; 0.1 μmol/L drug, DU145): 4932.39
- grey density value of PARP1 band (PARP1 [8]; 1 μmol/L drug, DU145): 6036.79
- grey density value of PARP1 band (PARP1 [8]; 10 μmol/L drug, DU145): 5302.8
- PARP1 trapping in nuclear chromosome (PARP1 [8]; 0.01-10 μM, DU145 cells treated with MMS): good PARP1 trapping
- PARP1 trapping compared with Olaparib (PARP1 [8]; same concentrations and conditions, DU145): stronger PARP1 trapping in nuclear chromosome than Olaparib

Structure (SMILES): O=C(c1cc(Cc2n[nH]c(=O)c3ccccc23)ccc1F)N1CCN(C(=O)C2CC2)CC1 [Olaparib]
- IC50 ([1]; read-out: IC50, proliferation of NCI-H209 cells): 2180 nM
- single effective dose (BRCA mutant animal model; BRCA mutant animal model study): 50-100 mg/kg per day
- effect on TMZ-related hematological toxicity (recurrent glioblastoma): exacerbate TMZ-related hematological toxicity

Structure (SMILES): Cn1nnc2c(C(N)=O)ncn2c1=O [TMZ, Temozolomide, reference compound]
- IC50 [1, 9]: > 100000 nM
- T/C (%) ([2]; TMZ 3 mg/kg p.o. QD x 21 D): 64.03**** %
- TGI (%) ([2]; TMZ 3 mg/kg p.o. QD x 21 D): 31.66**** %
- Average weight change (%) ([2]; TMZ 3 mg/kg p.o. QD x 21 D, versus initial weight): 7.99 ± 5.21%
- body weight reduction during the experiment [2]: no body weight reduction

Structure (SMILES): Cn1ncnc1[C@H]1c2n[nH]c(=O)c3cc(F)cc(c23)N[C@@H]1c1ccc(F)cc1 [Talazoparib]
- single agent effective dose (BRCA mutant animal model; BRCA mutated model): 0.33 mg/kg
